Data reported in patent publication US20250114367A1, “METHOD OF TREATING HAIR LOSS DISORDERS” (Sun Pharmaceutical Industries, Inc., priority 2023, published 2025).

System: subjects with AA
Experiment: SALT change at week 8, 8 mg BID versus 16 mg once daily
Assay type: in vivo, human
Description: A decrease in SALT score indicates increased hair growth. Decreases in the LS mean SALT scores were initially observed at Week 4. […] At week 8, the LS mean change from baseline SALT score was higher in subjects treated with deuruxolitinib 8 mg BID (8.6%) than in subjects treated with 16 mg once daily (QD) (2.7%).

In the case of `[2H]C1([2H])C([C@@H](CC#N)n2cc(-c3ncnc4[nH]ccc34)cn2)C([2H])([2H])C([2H])([2H])C1([2H])[2H]` [CTP-543, (R)-3-(4-(7H-pyrrolo[2,3-d]pyrimidin-4-yl)-1H-pyrazol-1-yl)-3-(cyclopentyl-2,2,3,3,4,4,5,5-d8) propanenitrile], the “LS mean change from baseline SALT score” value (8 mg BID) is reported as 8.6% and the “LS mean change from baseline SALT score” value (16 mg once daily (QD)) is reported as 2.7%.
